Results reported in patent US20140243334A1, “SUBSTITUTED HYDOXAMIC ACIDS AND USES THEREOF” (Millennium Pharmaceuticals, Inc., priority 2010, published 2014).

Molecular target: T1, purified human HDAC6 (Homo sapiens, UniProt Q9UBN7)
T1 construct: purchased BPS Bioscience 5006
T1 sequence (Q9UBN7 1-1215): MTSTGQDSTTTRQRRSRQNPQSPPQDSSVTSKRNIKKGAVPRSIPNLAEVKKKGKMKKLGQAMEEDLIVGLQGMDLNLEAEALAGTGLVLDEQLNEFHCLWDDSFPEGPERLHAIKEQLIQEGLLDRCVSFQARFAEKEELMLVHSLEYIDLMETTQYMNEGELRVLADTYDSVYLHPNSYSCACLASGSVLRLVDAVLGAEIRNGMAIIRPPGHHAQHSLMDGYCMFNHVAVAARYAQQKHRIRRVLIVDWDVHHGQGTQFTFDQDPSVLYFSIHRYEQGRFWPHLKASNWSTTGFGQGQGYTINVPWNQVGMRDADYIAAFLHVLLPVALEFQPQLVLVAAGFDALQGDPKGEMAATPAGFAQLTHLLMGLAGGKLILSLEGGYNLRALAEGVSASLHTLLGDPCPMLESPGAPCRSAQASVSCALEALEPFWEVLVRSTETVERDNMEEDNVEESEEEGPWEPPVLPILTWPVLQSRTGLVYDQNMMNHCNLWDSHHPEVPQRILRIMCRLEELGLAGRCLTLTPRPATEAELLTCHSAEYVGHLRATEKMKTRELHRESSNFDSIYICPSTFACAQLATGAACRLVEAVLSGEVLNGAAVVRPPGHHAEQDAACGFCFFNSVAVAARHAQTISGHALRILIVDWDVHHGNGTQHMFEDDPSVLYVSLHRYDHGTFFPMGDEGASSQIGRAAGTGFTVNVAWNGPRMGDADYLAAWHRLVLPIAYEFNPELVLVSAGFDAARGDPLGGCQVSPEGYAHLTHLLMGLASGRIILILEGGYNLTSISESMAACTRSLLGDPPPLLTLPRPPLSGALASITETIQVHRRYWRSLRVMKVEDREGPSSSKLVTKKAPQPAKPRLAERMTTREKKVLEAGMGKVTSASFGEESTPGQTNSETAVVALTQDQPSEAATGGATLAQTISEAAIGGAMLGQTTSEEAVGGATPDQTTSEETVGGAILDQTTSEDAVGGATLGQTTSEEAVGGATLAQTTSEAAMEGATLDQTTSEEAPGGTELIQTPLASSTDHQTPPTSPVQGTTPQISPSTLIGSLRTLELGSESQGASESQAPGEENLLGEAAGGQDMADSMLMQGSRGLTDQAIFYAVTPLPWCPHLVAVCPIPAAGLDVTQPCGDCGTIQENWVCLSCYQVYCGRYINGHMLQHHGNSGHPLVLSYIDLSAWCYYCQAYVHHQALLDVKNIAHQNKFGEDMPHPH
Experiment: HDAC6 Enzyme Assay
Format: biochemical
Conditions: HDAC6 inhibition at a compound concentration of 0.412 μM; read-out: Percent Inhibition at 0.412 μM
Experimental: To measure the inhibition of HDAC6 activity, purified human HDAC6 (BPS Bioscience; Cat. No. 5006) is incubated with substrate Ac-Arg-Gly-Lys(Ac)-AMC peptide (Bachem Biosciences; Cat. No. I-1925) for 1 hour at 30° C. in the presence of test compounds or vehicle DMSO control. The reaction is stopped with the HDAC inhibitor trichostatin A (Sigma; Cat. No. T8552) and the amount of Arg-Gly-Lys-AMC generated is quantitated by digestion with trypsin (Sigma; Cat. No. T1426) and subsequent measurement of the amount of AMC released using a fluorescent plate reader (Pherastar; BMG Technologies) set at Ex 340 nm and Em 460 nm. Concentration response curves are generated by calculating the fluorescence increase in test compound-treated samples relative to DMSO-treated controls, and enzyme inhibition (IC50) values are determined from those curves.

Row | SMILES | inhibition at 0.412 µM
1 | O=C(NO)C1CCc2ccc(Oc3cccc(OCc4ccccc4)c3)cc2C1 (centres unmarked) [Compound I-41, 7-[3-(benzyloxy)phenoxy]-N-hydroxy-1,2,3,4-tetrahydronaphthalene-2-carboxamide] | 64%
2 | O=C(NO)C1CCc2ccc(C#Cc3ccccc3)cc2C1 (centres unmarked) [Compound I-34, N-hydroxy-7-(phenylethynyl)-1,2,3,4-tetrahydronaphthalene-2-carboxamide] | 57%
3 | O=C(NO)C1CCc2ccc(-c3cccc(OCc4ccccc4)c3)cc2C1 (centres unmarked) [Compound I-48, 7-[3-(benzyloxy)phenyl]-N-hydroxy-1,2,3,4-tetrahydronaphthalene-2-carboxamide] | 73%
4 | O=C(NO)C1CCc2ccc(-c3ccc4ccccc4c3)cc2C1 (centres unmarked) [Compound I-86, N-hydroxy-5,6,7,8-tetrahydro-2,2′-binaphthalene-7-carboxamide] | 73%
5 | CC(=O)Nc1cccc(-c2ccc3c(c2)CC(C(=O)NO)CC3)c1 (centres unmarked) [Compound I-24, 7-[3-(acetylamino)phenyl]-N-hydroxy-1,2,3,4-tetrahydronaphthalene-2-carboxamide] | 86%
6 | O=C(NO)C1CCc2ccc(-c3ccc4[nH]cnc4c3)cc2C1 (centres unmarked) [Compound I-81, 7-(1H-benzimidazol-5-yl)-N-hydroxy-1,2,3,4-tetrahydronaphthalene-2-carboxamide] | 89%
7 | O=C(NO)C1CCc2cc(Oc3cccc(Cl)c3)ccc2C1 (centres unmarked) [Compound I-19, 6-(3-chlorophenoxy)-N-hydroxy-1,2,3,4-tetrahydronaphthalene-2-carboxamide] | 23%
8 | COc1ccc(-c2ccc3c(c2)CC(C(=O)NO)CC3)cc1F (centres unmarked) [Compound I-101, 7-(3-fluoro-4-methoxyphenyl)-N-hydroxy-1,2,3,4-tetrahydronaphthalene-2-carboxamide] | 82%
9 | Cc1ccc(-c2ccc3c(c2)CC(C(=O)NO)CC3)c2ccccc12 (centres unmarked) [Compound I-98, N-hydroxy-4-methyl-5′,6′,7′,8′-tetrahydro-1,2′-binaphthalene-7′-carboxamide] | 78%
10 | O=C(NO)C1CCc2cc(F)c(Oc3ccnc(NC(=O)C4CC4)c3)cc2C1 (centres unmarked) [Compound I-32, 7-({2-[(cyclopropylcarbonyl)amino]pyridin-4-yl}oxy)-6-fluoro-N-hydroxy-1,2,3,4-tetrahydronaphthalene-2-carboxamide] | 91%
11 | O=C(NO)C1CCc2ccc(-c3csc4ccccc34)cc2C1 (centres unmarked) [Compound I-96, 7-(1-benzothien-3-yl)-N-hydroxy-1,2,3,4-tetrahydronaphthalene-2-carboxamide] | 79%
12 | O=C1CCc2c(Oc3ccc4c(c3)C[C@@H](C(=O)NO)CC4)ccnc2N1 [Compound I-4, (2S)—N-hydroxy-7-[(7-oxo-5,6,7,8-tetrahydro-1,8-naphthyridin-4-yl)oxy]-1,2,3,4-tetrahydronaphthalene-2-carboxamide] | 85%
13 | Cn1cc(-c2cc(C(=O)Nc3ccc4c(c3)CC(C(=O)NO)CC4)cc(C(F)(F)F)c2)cn1 (centres unmarked) [Compound I-35, N-hydroxy-7-{[3-(1-methyl-1H-pyrazol-4-yl)-5-(trifluoromethyl)benzoyl]amino}-1,2,3,4-tetrahydronaphthalene-2-carboxamide] | 87%
14 | COc1ccc2c(c1)CC(C(=O)NO)CC2 (centres unmarked) [Compound I-1, N-hydroxy-7-methoxy-1,2,3,4-tetrahydronaphthalene-2-carboxamide] | 8%
15 | O=C(NO)C1CCc2cc(Oc3ccnc(NC(=O)C4CC4)c3)ccc2C1 (centres unmarked) [Compound I-13, 6-({2-[(cyclopropylcarbonyl)amino]pyridin-4-yl}oxy)-N-hydroxy-1,2,3,4-tetrahydronaphthalene-2-carboxamide] | 74%
16 | COc1ccc2cc(-c3ccc4c(c3)CC(C(=O)NO)CC4)ccc2c1 (centres unmarked) [Compound I-114, N-hydroxy-6′-methoxy-5,6,7,8-tetrahydro-2,2′-binaphthalene-7-carboxamide] | 76%

Row | SMILES | inhibition at 0.412 µM
17 | O=C(NO)C1CCc2ccc(-c3ccc(S(=O)(=O)N4CCCCC4)cc3)cc2C1 (centres unmarked) [Compound I-123, N-hydroxy-7-[4-(piperidin-1-ylsulfonyl)phenyl]-1,2,3,4-tetrahydronaphthalene-2-carboxamide] | 61%
18 | CC(=O)Nc1cccc(Oc2ccc3c(c2)CC(C(=O)NO)CC3)c1 (centres unmarked) [Compound I-21, 7-[3-(acetylamino)phenoxy]-N-hydroxy-1,2,3,4-tetrahydronaphthalene-2-carboxamide] | 80%
19 | O=C(NO)C1CCc2ccc(Oc3cccc(NCc4ccccc4)c3)cc2C1 (centres unmarked) [Compound I-59, 7-[3-(benzylamino)phenoxy]-N-hydroxy-1,2,3,4-tetrahydronaphthalene-2-carboxamide] | 76%
20 | O=C(NO)C1CCc2cc(NC(=O)C3CC3)ccc2C1 (centres unmarked) [Compound I-77, 6-[(cyclopropylcarbonyl)amino]-N-hydroxy-1,2,3,4-tetrahydronaphthalene-2-carboxamide] | 68%
21 | NC(=O)c1ccc2c(c1)CC(C(=O)NO)CC2 (centres unmarked) [Compound I-39, N^2-hydroxy-1,2,3,4-tetrahydronaphthalene-2,7-dicarboxamide] | 76%
22 | CC(C)(C)NC(=O)c1ccc2c(c1)CC(C(=O)NO)CC2 (centres unmarked) [Compound I-45, N^7-(tert-butyl)-N^2-hydroxy-1,2,3,4-tetrahydronaphthalene-2,7-dicarboxamide] | 79%
23 | COc1ccc(-c2ccc3c(c2)CC(C(=O)NO)CC3)cc1OC (centres unmarked) [Compound I-109, 7-(3,4-dimethoxyphenyl)-N-hydroxy-1,2,3,4-tetrahydronaphthalene-2-carboxamide] | 82%
24 | O=C(NO)C1CCc2ccc(-c3ccncc3)cc2C1 (centres unmarked) [Compound I-17, N-hydroxy-7-pyridin-4-yl-1,2,3,4-tetrahydronaphthalene-2-carboxamide] | 60%
25 | O=C(NO)C1CCc2ccc(NCc3cccnc3)cc2C1 (centres unmarked) [Compound I-38, N-hydroxy-7-[(pyridin-3-ylmethyl)amino]-1,2,3,4-tetrahydronaphthalene-2-carboxamide] | 57%
26 | O=C(NO)C1CCc2cc(Oc3ccncc3)ccc2C1 (centres unmarked) [Compound I-27, N-hydroxy-6-(pyridin-4-yloxy)-1,2,3,4-tetrahydronaphthalene-2-carboxamide] | 53%
27 | CCCc1ccc(-c2ccc3c(c2)CC(C(=O)NO)CC3)cc1 (centres unmarked) [Compound I-94, N-hydroxy-7-(4-propylphenyl)-1,2,3,4-tetrahydronaphthalene-2-carboxamide] | 62%
28 | O=C(NO)C1CCc2ccc(-c3cccc(Cl)c3)cc2C1 (centres unmarked) [Compound I-49, 7-(3-chlorophenyl)-N-hydroxy-1,2,3,4-tetrahydronaphthalene-2-carboxamide] | 82%
29 | COc1ccc(Nc2ccc3c(c2)CCC(C(=O)NO)C3)cc1 (centres unmarked) [Compound I-80, N-hydroxy-6-[(4-methoxyphenyl)amino]-1,2,3,4-tetrahydronaphthalene-2-carboxamide] | 43%
30 | CC(C)COc1ccc2c(c1)CC(C(=O)NO)CC2 (centres unmarked) [Compound I-7, N-hydroxy-7-isobutoxy-1,2,3,4-tetrahydronaphthalene-2-carboxamide] | 57%
31 | CC1(C(=O)NO)CCc2ccc(Oc3ccc(Cl)cc3)cc2C1 (centres unmarked) [Compound I-124, 7-(4-Chlorophenoxy)-N-hydroxy-2-methyl-1,2,3,4-tetrahydronaphthalene-2-carboxamide] | 16%
32 | O=C(Nc1ccccc1)Nc1ccc2c(c1)CC(C(=O)NO)CC2 (centres unmarked) [Compound I-30, 7-[(Anilinocarbonyl)amino]-N-hydroxy-1,2,3,4-tetrahydronaphthalene-2-carboxamide] | 86%
